One data set has as its system ApoE4+/+ FAD mice. Briefly: novel object recognition (NOR) after hippocampal AAV2 injection, ApoE KI mice with 5xFAD background (EFAD). Type of data set: in vivo, mouse. The settings on record: male ApoE4+/+ FAD mice. From the text:
Animal models. Human ApoE4^+/+ or ApoE3^+/+ knock-in (KI) mouse models without (Grootendorst J et al., Behavioural brain research 2005, Rodriguez G A et al., Learn Mem 2013, and Wang C et al., Neurobiology of disease 2005) or with 5×FAD background (Balu D et al., Neurosci Lett 2019, and Tai L M et al., J Lipid Res 2017) were genotyped (Zhong L et al., Mol Neurodegener 2016). Sex as a biological variable was taken into considerations with inclusion of both male and female mice in the experiments.
Stereotaxic injection and behavior studies. Eight to nine weeks old male and female ApoE3^+/+ and ApoE4^+/+ KI mice without 5×FAD background (N=19-23/group), or with 5×FAD background (N=15-17/group) were placed in the stereotaxic apparatus with AAV2 or scramble virus administered into the dorsal CA1 regions of bilateral hippocampal brain regions using pressure injection (Labonte B et al., Nat Med 2017, and Passini M A et al., The Journal of neuroscience 2006). Injection volumes (0.5-2.0 μl) were delivered over 10 min to avoid tissue damage. Six to nine months after viral delivery, mice were tested with the NOR task (Zhu L et al., Proc Natl Acad Sci USA 2015, Elder G A et al., J Neurotrauma 2012, and Howlett D R et al., Brain Res 2004). Mice were randomized for genotype and sex, and blinded throughout the behavior data collection and analysis, surgical manipulations, and sample collection.

In data set [1] the test system is endogenous mouse Aβ40 or Aβ42. Briefly: endogenous brain Aβ40 / Aβ42 levels in ApoE KI mice after miR-195 over-expression. The settings on record: ApoE4+/+ or ApoE3+/+ mouse brains. Format: in vivo. As to the method:
(§1) Stereotaxic injection and behavior studies. Eight to nine weeks old male and female ApoE3^+/+ and ApoE4^+/+ KI mice without 5×FAD background (N=19-23/group), or with 5×FAD background (N=15-17/group) were placed in the stereotaxic apparatus with AAV2 or scramble virus administered into the dorsal CA1 regions of bilateral hippocampal brain regions using pressure injection (Labonte B et al., Nat Med 2017, and Passini M A et al., The Journal of neuroscience 2006). Injection volumes (0.5-2.0 μl) were delivered over 10 min to avoid tissue damage. […]
(§2) Brain and neuronal sample preparation and biochemical analysis. […] Levels of Aβ42, Aβ40, pTau, Tau and ApoE were determined using high-sensitive ELISA kits. […]
(§3) Statistical analysis. […] Levels of miR-195-5p and miR-374 were normalized to U6 and RNU6B (internal controls) while synj1 mRNA normalized to GAPDH and 18s, and then expressed as Log2fold of changes when compared to controls. Levels of synj1, dyn1, pTau, Tau, and holoAPP were normalized to β-actin levels and expressed as a percentage of the control. Absolute Aβ42, Aβ40, pTau, Tau, and ApoE concentrations were quantitatively determined by ELISA and expressed as a percentage of the control. […] Pearson correlation coefficients were calculated to determine the linear relationship between the two variables. […]

The test system of a further data set is pTau, total Tau. Nature of the data set: brain pTau and total Tau in EFAD mice after miR-195-5p over-expression. Type of data set: in vivo. The following applies: ApoE4+/+ FAD mouse hippocampus. As to the method:
as §1, §2, §3

The next data set has as its system BV2 cells. Nature of the data set: LPS-induced gene expression (pdcd4, smad7, il10a) in BV2 microglia with miR-195-5p over-expression. Format: cell-based. How it is done: For example, LPS (at 0.2 μg/ml) treatment for overnight in BV2 cells leads to increased expression of pdcd4 and smad7 (FIG. 13A) and reduced expression of il10ra (FIG. 13C). […] Over-expression of miR-195-5p also attenuates LPS-induced pro-inflammatory cytokine release (IL-6 and TNFα; FIG. 13B). […] For these experiments, purified exosomes were derived from human APOE3/3 and 4/4 iPSC-derived astrocytes w/wo miR-195 over-expression detected by an exosome marker, ALIX. Fluorescence labeled exosomes were taken up by IBA1+ microglia cells.
Over-expression of miR-195-5p in microglia inhibits LPS-induced proinflammatory responses and augments anti-inflammatory responses. […] However, over-expression of miR-195-5p reduces expression levels of pdcd4 and smad7 and increases il10a expression in the presence of LPS. Over-expression of miR-195-5p also attenuates LPS-induced pro-inflammatory cytokine release (IL-6 and TNFα; FIG. 17B).

In turn, “UAGCAGCACAGAAAUAUUGGC (chemistry not given here) [miR-195-5p, over-expressed via AAV2-containing miR-195-5p from ABM Inc]” yielded an NOR preference index in the data set on ApoE4+/+ FAD mice (scramble controls 37.8%) of 63.1%. This sequence came in with an NOR discrimination index in the data set with ApoE4+/+ FAD mice (scramble controls -0.245) of 0.262. Besides, the figures for the “endogenous Aβ40 or Aβ42 levels” value in data set [1] and in data set [1] (listed as miR-195) were “No significant changes” and “no significant changes”, respectively. In addition, in the data set on pTau, total Tau, the p-Tau entry is reported as “reduction”. In addition, the “expression levels of pdcd4 and smad7” value in the data set on BV2 cells (LPS overnight) was “dramatically reduces”. Moreover, the il10a expression result with BV2 cells (in the presence of LPS) is reported as “increases”.

The values are drawn from patent US20240301408A1, “MICRORNA 195 COMPOSITIONS AND METHODS FOR TREATING COGNITIVE IMPAIRMENT” (UNITED STATES GOVERNMENT AS REPRESENTED BY THE DEPARTMENT …, priority 2021, published 2024).
